Assay results as given in patent publication US10188633B2, “Identification of small molecules that facilitate therapeutic exon skipping” (The Regents of the University of California, priority 2011, dated 2019).

Key:
[1] = long term administration; cited from earlier work
Dmd exon 23 = Dmd exon 23 skipping in primary mouse myotubes with 2'-O-methyl AO M23D (RT-PCR, taqman); type: cell-based
Experimental: (§1) (A) Differentiated primary mouse myotubes were transfected either with 100 nM 2′-O-methyl M23D, which targets exon 23 splice donor region or mock transfected for 24 hours after which the transfection reagent was removed, and myotubes were treated with different concentrations of Dantrolene for 48 hours. Nested RT-PCR was performed on cDNA between exons 20-26, as previously described. The 901 bp band is the full-length mRNA product, the 688 bp mRNA product is a single skip of exon 23, and the 550 bp mRNA product is a double skip of exons 22 and 23. (B) Mouse Dmd exon 23-skipped transcript levels were quantified using a taqman assay with primer-probe sets spanning the splice junction created by an exon 23 skip (22-24 join) relative to primers amplifying the splice junction of exons 22 and 23 (representing the full length mRNA), as previously described. […] Error bars represent standard deviation of qRT-PCR triplicates. (C) Patient derived fibroblasts with exon 45-50 deletion (confirmed by microarray, see FIG. 6) were immortalized with lentiviral hTERT and transduced with inducible lentiviral MyoD [26]. Cells were grown to confluence, induced for MyoD activity, and fused for 10 days in low serum differentiation media. On Day 7, h51AON [5′ […] 3′] (SEQ ID NO:2) (same sequence as Pro051) within human exon 51 was added at concentrations indicated. Twenty-four hours later Dantrolene or vehicle was added. Cells were harvested 2 days later and total RNA isolated. RT-PCR amplified a fragment of cDNA from exons 42-53 which was followed by a nested PCR to generate a fragment spanning exons 43-52. The 540 bp product is the full length DMD mRNA species and the 307 bp product indicates the exon 51 skip isoform. Quantitation was performed using the Agilent Bioanalyzer and represented as the skip/full-length mRNA ratio.

mdx mice = assay: Taut wire test (wire hang) in mdx mice, weekly AO with daily dantrolene; type: in vivo, mouse; conditions: 10 mg/kg/week AO with dantrolene 10 mg/kg/day versus AO alone, Day 18, p=0.022
Experimental: Weekly systemic doses of saline, 10 mg/kg of morpholino M23D (+07-18) was administered intravascularly on Day 1, 8, and 15. Dantrolene or carrier (20% DMSO in saline) was administered intraperitoneally at a dose of 10 mg/kg/day in two divided doses daily. On Day 18 functional improvement was blindly assessed by using the taut wire test. Latency to fall (in seconds) was recorded for five consecutive trials, with a one minute break occurring in between each trial. Plotted is first the average across five trials, and then the normalized average (seconds/grams) across experimental groups. Error bars represent the s.e.m.

exon skipping = assay: Counter screens, 16 point titrations and mdx mouse myotubes (validation of lead hits); type: cell-based
Text: The cell line, which was adapted to allow the screening of thousands of compounds in multiple replicates, was obtained from Dr. Qi Lu. […]

DMD patients = conditions: oral, after 2 years of daily treatment; cited from earlier work
DMD exon 51 = DMD exon 51 skipping in reprogrammed DMD patient fibroblasts fused to myotubes (GM05017, iDRM05017) with exon 51 AO; type: cell-based, human
Experimental: as §1
Patient fibroblasts with a DMD exon 45-50 deletion were immortalized and transduced with a lenti-viral vector expressing inducible MyoD to create iDRMs (inducibly directly reprogrammable myotubes, specifically iDRM05017s). iDRM05017s were induced for MyoD activity and then cultured for 10 days in fusion media. On Day 7, AO was added for twenty-four hours then removed and Piperacetazine, Trifluoperazine Dihydrochloride, Fluphenazine Dihydrochloride or vehicle (Dimethyl sulfoxide; DMSO) were added in fresh media. After two days total RNA was harvested, cDNA reverse transcribed with a DMD specific primer in exon 54, and exon 51 skipping was detected by nested RT-PCR spanning exons 43-52. Quantitation of exon 51 skipping was performed using the Agilent Bioanalyzer and is represented as the proportion of exon 51 skipping. Error bars represent the standard deviation (SD) of 3 independent wells.
Patient fibroblasts were transduced with HTERT and an inducible MyoD vector [26]. […] Exon 51 skipping activity was assessed in the context of transfecting an exon 51 2′-O-methyl AO with equivalent sequence to Pro051 seven days after fusion. This AO is directed at an exonic splicing enhancer (ESE) sequence within exon 51. The AO was removed prior to addition of dantrolene and cultures were harvested two days later. A nested RT-PCR was performed between DMD exons 43-52 and levels of exon 51 skipping were determined by quantitating capillary electrophoresis separated fragments representing skipped and unskipped DMD mRNA.

O=C1CN(/N=C/c2ccc(-c3ccc([N+](=O)[O-])cc3)o2)C(=O)N1 [DANTROLENE]
dose shown to be safe in humans [1]: up to 8 mg/kg/day
amount of exon 23 skipped product (RT-PCR exons 20-26) (Dmd exon 23; 25 and 50 uM dantrolene after 100 nM M23D): increased the amount of exon 23 skipped product
exon 23 skipping in the absence of AO (Dmd exon 23; no AO): failed to cause exon 23 skipping
increase of Dmd exon 23 skipping (skip/full length mRNA, taqman) versus AO alone (Dmd exon 23; with suboptimal 100 nM AO M23D, mouse myotubes): 3 fold
taut wire test, latency to fall (muscle strength) (mdx mice; listed as Dantrolene): significantly increased ability of mdx mice to hang on wire
taut wire test, latency to fall (muscle strength) (mdx mice; listed as dantrolene): functional benefit
efficacy in counter screen and on mdx mouse myotubes (exon skipping): showing efficacy in counter screen and on mdx mouse myotubes
creatine kinase levels (DMD patients): slightly reduced
manual muscle test (DMD patients): modest improvement
side effects (DMD patients): without substantial harmful side effects
AO directed DMD exon 51 skipping (DMD exon 51; compound added 24 h after AO for two days, nested RT-PCR exons 43-52): enhance AO directed DMD exon 51 skipping
enhancement of exon 51 skipping versus vehicle control (DMD exon 51; with suboptimal dose of exon 51 AO, skip/full-length mRNA ratio, Bioanalyzer): up to 8 fold
